Measurements from patent US11760754B2, “Heterocyclic mitochondrial activity inhibitors and uses thereof” (UNIVERSITÉ DE MONTRÉAL, priority 2017, dated 2023).

Tests used:
OCI-AML3 cells = test: OCI-AML3 cell growth inhibition, dose-response viability assay (CellTiterGlo); type: cell-based; conditions: Homo sapiens, OCI-AML-3, 144 h, read-out: AML-3 EC50
Method in brief: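 OCI-AML3 cells seeded, then exposed to compound in serial dilutions from 10 μM to 0.5 nM, in duplicate or quadruplicate. Viability read by CellTiter-Glo.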

MLL-AF9 cells = test: MLL-AF9 leukemia cell growth inhibition, dose-response viability assay (CellTiterGlo); type: cell-based, murine; conditions: Mus musculus, MLL-AF9, 120 h, read-out: MLL-AF9 EC50
Method in brief: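 Murine MLL-AF9 leukemia cells (female, MSCV MLL-AF9 IRES Puro transduced) were treated with serial compound dilutions from 10 μM to 0.5 nM in duplicates or quadruplicates. Viability read by CellTiterGlo dose-response.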

SMILES	EC50 (OCI-AML3 cells) [nM]	EC50 (MLL-AF9 cells) [nM]
CN(C)C(=O)OCCC(=O)NCCCCc1ccc(OCc2coc(/C=C/c3ccc(C(F)(F)F)cc3)n2)cc1 [Compound 87, (E)-3-oxo-3-((4-(4-((2-(4-(trifluoromethyl)styryl)oxazol-4-yl)methoxy)phenyl)butyl)amino)propyl dimethylcarbamate]	500 to 1000	100 to 500
Fc1cc(C(F)(F)F)ccc1/C=C/c1nc(COc2ccc(CCCCn3cncn3)cc2)co1 [Compound 88]	1000 to 10000	500 to 1000
FC(F)(F)c1ccc(/C=C/c2nc(COc3ccc(CCCCn4cncn4)cc3)co2)c(Oc2ccc(CCCCn3cncn3)cc2)c1 [Compound 89, (E)-2-(2-(4-(4-(1H-1,2,4-triazol-1-yl)butyl)phenoxy)-4-(trifluoromethyl)styryl)-4-((4-(4-(1H-1,2,4-triazol-1-yl)butyl)phenoxy)methyl)oxazole]	1000 to 10000	1000 to 10000
Fc1cc(C(F)(F)F)ccc1/C=C/c1nc(COc2ccc(CCCCn3cnnn3)cc2)co1 [Compound 90, (E)-4-((4-(4-(1H-tetrazol-1-yl)butyl)phenoxy)methyl)-2-(2-fluoro-4-(trifluoromethyl)styryl) oxazole]	1000 to 10000	100 to 500
Fc1cc(C(F)(F)F)ccc1/C=C/c1nc(COc2ccc(CCCCn3cccn3)cc2)co1 [Compound 91, (E)-4-((4-(4-(1H-pyrazol-1-yl)butyl)phenoxy)methyl)-2-(2-fluoro-4-(trifluoromethyl)styryl) oxazole]	1000 to 10000	500 to 1000
Cc1cn(CCCCc2ccc(OCc3coc(/C=C/c4ccc(C(F)(F)F)cc4F)n3)cc2)nn1 [Compound 92, (E)-2-(2-fluoro-4-(trifluoromethyl)styryl)-4-((4-(4-(4-methyl-1H-1,2,3-triazol-1-yl)butyl)phenoxy)methyl) oxazole]	500 to 1000	100 to 500
Cc1ncn(CCCCc2ccc(OCc3coc(/C=C/c4ccc(C(F)(F)F)cc4F)n3)cc2)n1 [Compound 93, (E)-2-(2-fluoro-4-(trifluoromethyl)styryl)-4-((4-(4-(3-methyl-1H-1,2,4-triazol-1-yl)butyl)phenoxy)methyl)oxazole]	1000 to 10000	500 to 1000
Cc1nnn(CCCCc2ccc(OCc3coc(/C=C/c4ccc(C(F)(F)F)cc4F)n3)cc2)n1 [Compound 94, (E)-2-(2-fluoro-4-(trifluoromethyl)styryl)-4-((4-(4-(5-methyl-2H-tetrazol-2-yl)butyl)phenoxy)methyl)oxazole]	1000 to 10000	1000 to 10000
OCCc1cn(CCCCc2ccc(OCc3coc(/C=C/c4ccc(C(F)(F)F)cc4F)n3)cc2)nn1 [Compound 95, (E)-2-(1-(4-(4-((2-(2-fluoro-4-(trifluoromethyl)styryl)oxazol-4-yl)methoxy)phenyl)butyl)-1H-1,2,3-triazol-4-yl)ethanol]	1000 to 10000	100 to 500
O=C(NC1CCCC1)OCCc1cn(CCCCc2ccc(OCc3coc(/C=C/c4ccc(C(F)(F)F)cc4F)n3)cc2)nn1 [Compound 97, (E)-2-(1-(4-(4-((2-(2-fluoro-4-(trifluoromethyl)styryl)oxazol-4-yl)methoxy)phenyl)butyl)-1H-1,2,3-triazol-4-yl)ethyl cyclopentylcarbamate]	100 to 500	100 to 500
CC(C)NC(=O)OCCc1cn(CCCCc2ccc(OCc3coc(/C=C/c4ccc(C(F)(F)F)cc4F)n3)cc2)nn1 [Compound 98, (E)-2-(1-(4-(4-((2-(2-fluoro-4-(trifluoromethyl)styryl)oxazol-4-yl)methoxy)phenyl)butyl)-1H-1,2,3-triazol-4-yl)ethyl isopropylcarbamate]	100 to 500	50 to 100
Fc1cc(C(F)(F)F)ccc1/C=C/c1nc(COc2ccc(CCCCn3ccnc3)cc2)co1 [Compound 100, (E)-4-((4-(4-(1H-imidazol-1-yl)butyl)phenoxy)methyl)-2-(2-fluoro-4-(trifluoromethyl)styryl)oxazole]	500 to 1000	500 to 1000
Fc1cc(C(F)(F)F)ccc1/C=C/c1nc(COc2ccc(CCCCc3cccnc3)cc2)co1 [Compound 102, (E)-2-(2-fluoro-4-(trifluoromethyl)styryl)-4-((4-(4-(pyridin-3-yl)butyl)phenoxy)methyl)oxazole]	100 to 500	100 to 500
Fc1cc(C(F)(F)F)ccc1/C=C/c1nc(COc2ccc(CCCCc3ccncc3)cc2)co1 [Compound 104, (E)-2-(2-fluoro-4-(trifluoromethyl)styryl)-4-((4-(4-(pyridin-4-yl)butyl)phenoxy)methyl)oxazole]	1000 to 10000	1000 to 10000
Fc1cc(C(F)(F)F)ccc1/C=C/c1nc(COc2ccc(CCCn3ccnn3)cc2)co1 [Compound 105, (E)-4-((4-(3-(1H-1,2,3-triazol-1-yl)propyl)phenoxy)methyl)-2-(2-fluoro-4-(trifluoromethyl)styryl)oxazole]	100 to 500	500 to 1000
FC(F)(F)c1ccc(/C=C/c2nc(COc3ccc(CCCn4ccnn4)cc3)co2)c(-n2nccn2)c1 [Compound 106, (E)-4-((4-(3-(1H-1,2,3-triazol-1-yl)propyl)phenoxy)methyl)-2-(2-(2H-1,2,3-triazol-2-yl)-4-(trifluoromethyl)styryl)oxazole]	1000 to 10000	1000 to 10000
Fc1cc(C(F)(F)F)ccc1/C=C/c1nc(COc2ccc(CCCCc3cncnc3)cc2)co1 [Compound 108, (E)-2-(2-fluoro-4-(trifluoromethyl)styryl)-4-((4-(4-(pyrimidin-5-yl)butyl)phenoxy)methyl)oxazole]	1000 to 10000	1000 to 10000
Fc1cc(C(F)(F)F)ccc1/C=C/c1nc(COc2ccc(OCCCn3ccnn3)cc2)co1 [Compound 109, (E)-4-((4-(3-(1H-1,2,3-triazol-1-yl)propoxy)phenoxy)methyl)-2-(2-fluoro-4-(trifluoromethyl)styryl)oxazole]	500 to 1000	100 to 500
Fc1cc(C(F)(F)F)ccc1/C=C/c1nc(COc2ccc(CCCCn3ncnn3)cc2)co1 [Compound 110, (E)-4-((4-(4-(2H-tetrazol-2-yl)butyl)phenoxy)methyl)-2-(2-fluoro-4-(trifluoromethyl)styryl)oxazole]	1000 to 10000	1000 to 10000
CCOC(=O)c1cn(CCCCc2ccc(OCc3coc(/C=C/c4ccc(C(F)(F)F)cc4)n3)cc2)nn1 [Compound 114, ethyl (E)-1-(4-(4-((2-(4-(trifluoromethyl)styryl)oxazol-4-yl)methoxy)phenyl)butyl)-1H-1,2,3-triazole-4-carboxylate]	1000 to 10000	1000 to 10000

Continued, values first:

EC50 (OCI-AML3 cells) [nM]	EC50 (MLL-AF9 cells) [nM]	SMILES
1000 to 10000	1000 to 10000	Fc1cccnc1/C=C/c1nc(COc2ccc(CCCCn3ccnn3)cc2)co1 [Compound 85, (E)-4-((4-(4-(1H-1,2,3-triazol-1-yl)butyl)phenoxy)methyl)-2-(2-(3-fluoropyridin-2-yl)vinyl)oxazole]
1000 to 10000	100 to 500	O=C(CCO)NCCCCc1ccc(OCc2coc(/C=C/c3ccc(C(F)(F)F)cc3)n2)cc1 [Compound 86, (E)-3-hydroxy-N-(4-(4-((2-(4-(trifluoromethyl)styryl)oxazol-4-yl)methoxy)phenyl)butyl) propanamide]
500 to 1000	100 to 500	COCCNC(=O)OCCc1cn(CCCCc2ccc(OCc3coc(/C=C/c4ccc(C(F)(F)F)cc4F)n3)cc2)nn1 [Compound 96, (E)-2-(1-(4-(4-((2-(2-fluoro-4-(trifluoromethyl)styryl)oxazol-4-yl)methoxy)phenyl)butyl)-1H-1,2,3-triazol-4-yl)ethyl (2-methoxyethyl)carbamate]
100 to 500	100 to 500	O=[N+]([O-])c1ccc(/C=C/c2nc(COc3ccc(CCCCn4ccnc4)cc3)co2)c(F)c1 [Compound 99, (E)-4-((4-(4-(1H-imidazol-1-yl)butyl)phenoxy)methyl)-2-(2-fluoro-4-nitrostyryl)oxazole]
1000 to 10000	1000 to 10000	O=[N+]([O-])c1ccc(/C=C/c2nc(COc3ccc(CCCCn4ccnn4)cc3)co2)c(Oc2ccc(CCCCn3ccnn3)cc2)c1 [Compound 101, (E)-2-(2-(4-(4-(1H-1,2,3-triazol-1-yl)butyl)phenoxy)-4-nitrostyryl)-4-((4-(4-(1H-1,2,3-triazol-1-yl)butyl)phenoxy)methyl)oxazole]
100 to 500	100 to 500	O=[N+]([O-])c1ccc(/C=C/c2nc(COc3ccc(CCCCc4cccnc4)cc3)co2)c(F)c1 [Compound 103, (E)-2-(2-fluoro-4-nitrostyryl)-4-((4-(4-(pyridin-3-yl)butyl)phenoxy)methyl)oxazole]
1000 to 10000	1000 to 10000	Fc1cc(C(F)(F)F)ccc1/C=C/c1nc(COc2ccc(CCCCc3nccs3)cc2)co1 [Compound 107, (E)-2-(2-fluoro-4-(trifluoromethyl)styryl)-4-((4-(4-(thiazol-2-yl)butyl)phenoxy)methyl) oxazole]
1000 to 10000	500 to 1000	Fc1cc(C(F)(F)F)ccc1/C=C/c1nc(/C=C/c2ccc(CCCCn3ccnn3)cc2)co1 [Compound 111, 4-((E)-4-(4-(1H-1,2,3-triazol-1-yl)butyl)styryl)-2-((E)-2-fluoro-4-(trifluoromethyl)styryl) oxazole]
100 to 500	50 to 100	Fc1ccc2oc(-c3nc(COc4ccc(CCCCn5ccnn5)cc4)co3)cc2c1 [Compound 112, 4-((4-(4-(1H-1,2,3-triazol-1-yl)butyl)phenoxy)methyl)-2-(5-fluorobenzofuran-2-yl) oxazole]
500 to 1000	100 to 500	Fc1ccc2sc(-c3nc(COc4ccc(CCCCn5ccnn5)cc4)co3)cc2c1 [Compound 113, 4-((4-(4-(1H-1,2,3-triazol-1-yl)butyl)phenoxy)methyl)-2-(5-fluorobenzo[b]thiophen-2-yl)oxazole]
